Drawing on patent US5369098A, “Hydroxymethyl cyclobutyl purines” (E. R. Squibb & Sons, Inc., priority 1989, dated 1994), this text covers IC50, CC50 and MCC for two compounds.

What all share (type): cell-based
The test system of series [1] is HSV-1 (herpes simplex virus type 1, strain Schooler). The experiment in a line: HSV-1 antiviral assay (plaque reduction in WI-38 cell monolayers). Conditions: Human alphaherpesvirus 1, 96 h; WI-38 cells; plaque reduction of at least 50%; 4 days at 37° C.; read-out: ID50 for HSV-1. Here is the method:
(§1) Assays were performed in cell culture systems to determine the concentrations of compounds that are effective in preventing several kinds of viral infections. HSV-1 (herpes simplex virus type 1, strain Schooler), HSV-2 (herpes simplex virus type 2, strain 186), VZV (varicella zoster virus, strain ELLEN), MuLV (murine leukemia virus, strain CAS), HIV (human immunodeficiency virus, strain HTLV-IIIB). Cell Culture Assays: HSV-1, HSV-2, and VZV antiviral assays: Virus was adsorbed to WI-38 cell culture monolayers in 6 well culture plates (Costar, Cambridge, Mass.) for 1 hour prior to addition of maintenance medium containing duplicate dilutions of the test compound. Inhibition of plaque development was evaluated on fixed and stained monolayers after 4 days incubation at 37° C. for HSV-1 and HSV-2 and after 6-7 days incubation at 37° C. for VZV. ID50 values were determined from the drug concentration which conferred at least a 50% plaque reduction compared to virus controls.

Series [2] concerns HSV-2 (herpes simplex virus type 2, strain 186). The experiment in a line: HSV-2 antiviral assay (plaque reduction in WI-38 cell monolayers). Conditions: Human alphaherpesvirus 2, 96 h; WI-38 cells; plaque reduction of at least 50%; 4 days at 37° C.; read-out: ID50 for HSV-2. Here is the method:
as §1

Series [3] deals with VZV (varicella zoster virus, strain ELLEN). The experiment in a line: VZV antiviral assay (plaque reduction in WI-38 cell monolayers). The conditions noted are these: Human alphaherpesvirus 3; WI-38 cells; plaque reduction of at least 50%; 6-7 days at 37° C.; read-out: ID50 for VZV. Here is the method: as §1
The subject of series [4] is MuLV (murine leukemia virus, strain CAS). The experiment in a line: MuLV antiviral assay (syncytial plaques, SC-1 cells / XC cells). The conditions noted are these: SC1, XC cell overlay, syncytial plaques counted, read-out: ID50 for MuLV. Here is the method: Assays were performed in cell culture systems to determine the concentrations of compounds that are effective in preventing several kinds of viral infections.
HSV-1 (herpes simplex virus type 1, strain Schooler), HSV-2 (herpes simplex virus type 2, strain 186), VZV (varicella zoster virus, strain ELLEN), MuLV (murine leukemia virus, strain CAS), HIV (human immunodeficiency virus, strain HTLV-IIIB). Cell Culture Assays:
MuLV antiviral assay: Antiviral assays using MuLV were performed with some modification, as described by Rowe et al. and Shannon et al.. SC-1 cells were planted at approximately 2×10^5 cell per well in 6 well plates. After overnight incubation at 37° C., the cell cultures were sensitized with DEAE-Dextran for one hour at 37° C., rinsed and inoculated with MuLV. Cultures were re-fed with growth medium containing different concentrations of the test compound. After three more days at 37° C., cultures were re-fed with fresh medium plus test compounds and incubated at 37° C. for an additional 3 days. Cultures were then washed to remove medium, ultraviolet light irradiated, and planted with approximately 5×10^5 XC cells per well in cell growth medium containing the appropriate concentration of the test compound. […] Finally the cultures were rinsed, stained and syncytial plaques were counted. […]

Series [5] has as its system HIV (human immunodeficiency virus, strain HTLV-IIIB). Briefly: HIV antiviral assay (reduction of viral cytopathic effect in CEM cells, XTT-PMS). The conditions noted are these: Human immunodeficiency virus 1, IIIB, CCRF-CEM, 168 h, minimum drug concentration that inhibits CPE by 50%, 7 days at 37° C., read-out: ID50 for HIV. Here is the method:
Assays were performed in cell culture systems to determine the concentrations of compounds that are effective in preventing several kinds of viral infections. HSV-1 (herpes simplex virus type 1, strain Schooler), HSV-2 (herpes simplex virus type 2, strain 186), VZV (varicella zoster virus, strain ELLEN), MuLV (murine leukemia virus, strain CAS), HIV (human immunodeficiency virus, strain HTLV-IIIB). Cell Culture Assays: HIV antiviral assay: Suspensions of CEM cells (P. L. Nara, et. al., Nature 332, 469(1988)) were infected at a multiplicity of infection of 0.12 TCID50 /cell with HIV (strain HTLV-III B). […] Following incubation, viable cell numbers were counted in each well using a colorimetric assay following incubation of cells with XTT-PMS solution (XTT tetrazolium reagent plus phenazine methosulfate, PMS). Percent reduction of viral cytopathic effect (CPE) in drug treated compared to untreated virus infected cells, and percent reduction of cell viability in drug treated uninfected cells compared to untreated controls were calculated and plotted versus the drug concentrations tested. […]
In general terms: Cytopathic effects are the visible damage that an infection or toxin causes in cultured cells.

Series [6] in a line: Reduction of viability of uninfected CEM cells (XTT-PMS). The conditions noted are these: human, footnotes *** and **** to HIV, 7 days, read-out: Minimum cytotoxic drug concentration that reduces cell viability by 50%. Here is the method: HIV antiviral assay: Suspensions of CEM cells (P. L. Nara, et. al., Nature 332, 469(1988)) were infected at a multiplicity of infection of 0.12 TCID50 /cell with HIV (strain HTLV-III B). After adsorption for 1-2 hours at 37° C., infected cells were diluted in growth medium (RPMI 1640 containing the antibiotics penicillin plus streptomycin and 10% fetal calf serum) to give a final cell concentration of 1×10^4 viable cells/culture well in the presence of serial dilutions of the test compound, starting at 100 μg/ml. Triplicate samples at each drug concentration were used. Cultures of uninfected CEM cells were similarly prepared and incubated with serial dilutions of test compound in duplicate. All assays were performed in 96 well disposable cell culture plates. Untreated (infected and uninfected) cells were included as controls. […] Following incubation, viable cell numbers were counted in each well using a colorimetric assay following incubation of cells with XTT-PMS solution (XTT tetrazolium reagent plus phenazine methosulfate, PMS). Percent reduction of viral cytopathic effect (CPE) in drug treated compared to untreated virus infected cells, and percent reduction of cell viability in drug treated uninfected cells compared to untreated controls were calculated and plotted versus the drug concentrations tested. […]

Series [7] can be described thus: Cytotoxicity by microscopic examination of the cell sheet. The conditions noted are these: human, WI-38 cells.

On to `Nc1nc2c(ncn2[C@H]2C[C@@H](CO)C2)c(=O)[nH]1` [Example 1, (cis)-2-amino-1,9-dihydro-9-[3-(hydroxymethyl)cyclobutyl]-6H-purin-6-one], for which the IC50 in series [1] is 9 to 21 µM; in series [2], 9 to 21 µM; in series [3], 21 µM; in series [4] it was 43 to 106 µM; in series [5], 230 µM. The CC50 at 168 h in series [6] was above 425 µM.

As for `Nc1ncnc2c1ncn2[C@H]1C[C@@H](CO)C1` [Example 2, (cis)-3-(6-Amino-9H-purin-9-yl)cyclobutanemethanol], the IC50 in series [1] is 456 µM; in series [2], 456 µM; in series [3], above 114 µM; in series [4] it was 23 to 46 µM; in series [5], 301 µM. For the same compound, the MCC at 96 h in series [7] (footnote * to HSV-1 and HSV-2, 4 days, read-out: Cytotoxic concentration by microscopic examination of the cell sheet (HSV-1 and HSV-2 assays)) is 456 µM. Moreover, the MCC in series [7] (footnote ** to VZV, 6-7 days, read-out: Cytotoxic concentration by microscopic examination of the cell sheet (VZV assay)) was 228 µM. The CC50 at 168 h in series [6] was above 456 µM.
